Results on 80 compounds are retold here after the METLIN SMRT retention time set (Domingo-Almenara et al. 2019).

A short description of this series: gradient 5% acetonitrile 3 min, to 50% in 2 min, to 85% in 15 min, held 3 min, 100 µL/min. The note with it: column: Zorbax Extend-C18 2.1 x 50 mm; eluents: water / acetonitrile, 0.1% formic acid. In a few lines:
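Retention times come from adduct peaks that were picked computationally and then checked by hand. The standards, pure and pooled in mixtures of ~100 molecules, were run on a Zorbax Extend-C18 column (2.1 × 50 mm, 1.8 μm) at 100 μL/min with water and acetonitrile, each with 0.1% formic acid. Detection was by quadrupole time-of-flight mass spectrometry in positive and negative ionization mode, with a dead volume of 40 μL and a dwell volume of 900 μL.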
`Cc1cccc(NC(=O)C2CCN(S(=O)(=O)c3cn(C(C)C)cn3)CC2)c1` came in with an RP-LC retention time of 781 s. With `CCN1c2ccc(F)cc2C(=O)NC12CCN(C(=O)c1cc(OC)cc(OC)c1)CC2` the figure was 782 s; with `CN(C)C1CCc2[nH]c3c(F)cc(F)cc3c2C1` (stereo not given), 685 s; with `COc1cc(NC(=O)C2CC(=O)N(CCc3c[nH]c4ccc(F)cc34)C2)cc(OC)c1OC` (stereo not given), 744 s.

As for `CNC(=O)c1c(NC(=O)c2cccc(Cl)c2)sc2c1CCC2`, the RP-LC retention time amounted to 1160 s. In the case of `Cc1ccc(NC(=O)c2ccc3[nH]c4c(c3c2)CN(C(=O)C2CCC2)CC4)cc1`, the RP-LC retention time is 864 s. Compound `Cc1ccc(NC(=O)N2CCc3nc(-c4ccccc4)ncc3C2)c(C)c1` showed an RP-LC retention time of 952 s. On to `CCC(C)NC(=O)c1ccc(CN2CCN(Cc3ccccc3)C(=O)C2=O)cc1` (stereo not given), for which the RP-LC retention time turned out to be 721 s.

For the compound `COc1cc(OC)c(NC(=O)c2cnn(-c3ccccc3)c2)cc1Cl`, the RP-LC retention time came to 944 s. In the case of `COc1cc(-c2nc3ncccn3c2Nc2c(C)cccc2C)ccc1O`, the RP-LC retention time was 683 s.

Regarding `Cc1sc(C)c(S(=O)(=O)N2CCc3ccccc3C2)c1-c1cc(C(F)(F)F)on1`, the RP-LC retention time turned out to be 1280 s.

For the compound `COc1ccc(NC2=NS(=O)(=O)C(c3ccc(F)cc3)=C2C)c(OC)c1`, the RP-LC retention time came out at 929 s. `Cc1ccc(-c2nnc(N3CCC(C(=O)NCc4ccc5c(c4)OCO5)CC3)o2)cc1`: the RP-LC retention time worked out at 838 s.

`CCCCCCOC(=O)[C@@]1(O)CC2O[C@]1(C)n1c3ccccc3c3c4c(c5c6ccccc6n2c5c31)C(=O)NC4` came in with an RP-LC retention time of 1230 s. In the case of `Cc1ccnc(NS(=O)(=O)c2ccc(NC(=O)c3cn(C)nc3C)cc2)n1`, the RP-LC retention time came out at 589 s.

Compound `CCOc1ccc(C(C)NC(=O)c2nnc(-c3ccc(S(=O)(=O)N(C)C)cc3)o2)cc1` (stereo not given) displayed an RP-LC retention time of 923 s. On to `CCn1nc(CNC(=O)c2ccc(F)c(F)c2)c2ccccc21`, for which the RP-LC retention time was 896 s. In turn, `Cn1c(=O)oc2cc(-c3noc(-c4ccc(C(C)(C)C)cc4)n3)ccc21` gave an RP-LC retention time of 1310 s. For `Cc1ccc(C(=O)N2CCC3(CC2)N=C(c2cccc(Br)c2)NO3)cc1` the value was 938 s; for `Cc1noc(C)c1-c1ccc(S(=O)(=O)N2CCc3ccccc3C2)cc1`, 1050 s; for `Cc1[nH]c(C(=O)N2CCC(CC(=O)NCc3ccc4c(c3)OCO4)CC2)c(C)c1C`, 774 s. Compound `C=C1C(=O)O[C@@H]2/C=C(\C)CCC=C(C)CC[C@@H]12` gave an RP-LC retention time of 1090 s. Compound `COC(=O)Nc1ccc(CC(=O)NC2CC2)cc1` gave an RP-LC retention time of 592 s. As for `Cc1cc(N2CCN(c3ccccn3)CC2)n2nc(C(F)(F)F)nc2n1`, the RP-LC retention time came out at 604 s. `C=CCN1C(=O)COc2ccc(-c3csc(NC(=O)c4cccc(Br)c4)n3)cc21` gave an RP-LC retention time of 1120 s. In turn, `Cc1ccsc1C(=O)NCCn1c(=O)n(Cc2ccc(F)cc2)c2cccnc21` gave an RP-LC retention time of 824 s.

`Cc1ccccc1CNC(=O)C1(c2ccc(NS(C)(=O)=O)cc2)CCCCC1` yielded an RP-LC retention time of 917 s.

The compound `O=C(Cn1nc2c3sc(N4CCCCC4)nc3ncn2c1=O)Nc1cccc(Br)c1` returned an RP-LC retention time of 855 s. With `Cc1ccccc1CC(=O)N1CCN(c2cc(C)n3cnnc3n2)CC1` the figure was 608 s. Take `Cc1cccc(Oc2cc(N3CCC(C(=O)Nc4cccc(C(C)C)c4)CC3)ncn2)c1C`: the RP-LC retention time was determined as 1200 s.

`CN1C(=O)C2CCCCN2c2ccc(C(=O)NCCCN3CCCCCC3)cc21` (stereo not given) came in with an RP-LC retention time of 627 s. Turning to `Cc1ccc(N2C(=O)CN(S(C)(=O)=O)CC2(C)C(=O)NC2CCCCCC2)cc1Cl` (stereo not given), the RP-LC retention time came out at 946 s.

The compound `COc1ccc(Nc2c(C(=O)N3CCC(C)CC3)cnc3nc(C)ccc23)cc1OC` gave an RP-LC retention time of 629 s. For `Cc1noc(C)c1CC(=O)NCc1cccnc1Oc1ccccc1`, the RP-LC retention time is 734 s. `O=C(CN1C(=O)CN(C(=O)NCc2ccccc2)c2ccccc21)NCCc1ccco1`: the RP-LC retention time worked out at 803 s. With `Cc1ccc(NC(=O)Nc2ccc3nncn3c2)cc1C` the figure was 730 s. For `CCCNC(=O)C1CCCN(c2nc3ncn(CC(=O)Nc4ccccc4OCC)c(=O)c3s2)C1` (stereo not given) the value was 742 s. For `O=C(Cc1c[nH]c2ccccc12)N1CCC(c2noc(C3CC3)n2)C1` (stereo not given) the value was 744 s.

For the compound `COc1ccc2[nH]c(=O)c(CCC(=O)NCc3cccnc3)cc2c1`, the RP-LC retention time worked out at 571 s.

As to `Cc1nc(C)c(C(=O)Nc2nc(-c3ccc(Br)cc3)c(C)s2)s1`, the RP-LC retention time came out at 1100 s. With `CC(C)CCNC(=O)C1(C)CN(S(=O)(=O)c2ccccc2)CC(=O)N1CCCN1CCCCC1` (stereo not given) the figure was 674 s. In turn, `Cc1nc(N2CCC(C(=O)Nc3ccc(F)cc3F)CC2)c2c(C)c(C)oc2n1` returned an RP-LC retention time of 874 s. For `O=C(NC1CCCCC1NC(=O)c1cccs1)c1cccs1` (stereo not given), the RP-LC retention time came to 728 s. With `Cc1ccc(C)c(-n2ccn(Cc3nc(-c4ccccc4C)no3)c(=O)c2=O)c1`, the RP-LC retention time was 953 s. In turn, `COc1ccc(-c2cc(C(=O)N3CCCC3)c(C)n2C)cc1` had an RP-LC retention time of 589 s. On to `COc1ccc(Nc2nc(-c3nnn(-c4ccc(F)cc4F)c3C)ns2)cc1OC`, for which the RP-LC retention time was determined as 900 s. With `CCc1ccc(NC(=O)c2cn(C)nc2S(=O)(=O)N2CCSCC2)cc1`, the RP-LC retention time stood at 1040 s.

Compound `CC1=NS(=O)(=O)N(C)C=C1C(=O)OCc1cc(F)cc(F)c1` came in with an RP-LC retention time of 934 s. For `COc1cccc(S(=O)(=O)N2CC(F)(F)C[C@H]2c2nnc(C)o2)c1` the value was 785 s. Compound `c1cncc(-c2nc(-c3ccc4c(c3)ncn4CCN3CCCCC3)no2)c1` showed an RP-LC retention time of 581 s. The compound `Cc1csc(-c2cc(S(=O)(=O)N3CCOCC3)c(C)n2C)n1` had an RP-LC retention time of 824 s.

`COc1cc(C(=O)NCC(c2cccs2)N2CCOCC2)c([N+](=O)[O-])cc1OC` (stereo not given) displayed an RP-LC retention time of 565 s. With `O=C(CCc1cc(Cl)no1)N1CCCCC1c1noc(COCC2CC2)n1` (stereo not given) the figure was 934 s; with `Cn1nc(-c2nc(C3CC3)no2)c2c1CCN(S(=O)(=O)c1ccccc1Cl)C2`, 952 s; with `O=C1CCc2cc(NC(=O)C3CC3)ccc2N1`, 599 s.

`COCCNC(=O)CN1C(=O)C2CCCCN2c2ccc(C(=O)N3CCCC3)cc21` (stereo not given) yielded an RP-LC retention time of 653 s. As to `CNC(=O)CN(C)C(=O)C1CCCCc2nnc(C(C)C)n21` (stereo not given), the RP-LC retention time was 542 s.

`COc1ccc(C(=O)N2CCN(c3nc(CN4CCOCC4)cs3)CC2)cc1` displayed an RP-LC retention time of 833 s. With `Cc1cc(C(=O)N2CC(N(C(=O)NC(C)C)C3CCOCC3)C2)nn1C` the figure was 576 s; with `CCn1c(=O)c(C)nc2cc(-c3noc(-c4ccc(C)cc4)n3)ccc21`, 1200 s.

Take `CCN(CC)CCCNC(=O)c1cc(C)nc2ccc(Br)cc12`: the RP-LC retention time is 585 s.

In the case of `COc1cccc(NC(=O)NCCc2nc3cccnc3n2C2CCCC2)c1`, the RP-LC retention time was determined as 696 s. `O=C(NCCN1CCOCC1)C1CCN(c2nc3cccnc3s2)CC1` gave an RP-LC retention time of 570 s. `O=C(CCS(=O)(=O)c1ccccc1)NCc1cc(-c2ccccc2F)on1`: the RP-LC retention time was determined as 742 s. As for `CCCc1noc(C2CCCCN2CC(=O)Nc2ccc(F)c(Cl)c2)n1` (stereo not given), the RP-LC retention time was 1110 s. For `O=C(NCc1ccc(Br)cc1)c1cn2c(n1)CCCC2` the value was 633 s; for `COCCn1c(SCc2nc(-c3ccc(C)cc3)no2)nc2cc3c(cc2c1=O)OCO3`, 1100 s. For `O=C(NC1CCCC1)c1cn(-c2cc(-c3nc(C4CC4)no3)ccn2)cn1`, the RP-LC retention time was determined as 867 s. `O=C(NCc1ccccn1)C(=O)NCC1OCCN1S(=O)(=O)c1cccs1` (stereo not given) returned an RP-LC retention time of 563 s.

Compound `CCn1cnc(S(=O)(=O)N2CCC(C(=O)N3CCN(c4ccc(F)cc4)CC3)CC2)c1` gave an RP-LC retention time of 762 s. As for `COc1ccccc1NC(=O)N1CCCC1c1nc(-c2ccccc2C)no1` (stereo not given), the RP-LC retention time was found to be 1080 s.

In the case of `CCCN(c1cccc(Cl)c1)c1nc(C(=O)OCC)nc2ccccc12`, the RP-LC retention time worked out at 1200 s. `O=C(CN1c2ccc(F)cc2-c2ccccc2S1(=O)=O)NCCc1ccccc1` registered an RP-LC retention time of 960 s. With `Cc1cccc(CNC(=O)c2cn3ccncc3n2)c1` the figure was 705 s. The compound `CCN(CC)C(=O)C1C(=O)NC2(C)CC1c1ccccc1O2` (stereo not given) came in with an RP-LC retention time of 716 s. Consider `CCOc1ccc(-c2noc(Cn3cnc4c(cnn4-c4cc(Cl)ccc4C)c3=O)n2)cc1OC`, for which the RP-LC retention time was 1030 s.

For `CCN(CC)C(=O)c1ccc2c(c1)CCCN2S(C)(=O)=O`, the RP-LC retention time is 748 s. Consider `COc1cccc(-c2ccnc3nc(-c4ccccc4OC)nn23)c1`, for which the RP-LC retention time was determined as 860 s. With `Cc1ccc2c(c1)N(S(C)(=O)=O)CCC(C(=O)Nc1c(C)cccc1C)O2` (stereo not given) the figure was 930 s. Regarding `O=C(Nc1ccc(Cl)cc1)c1csc(-c2ccc(N3CCCC3)nc2)n1`, the RP-LC retention time came to 837 s.
